Reference: paper PMC9266445, “Probing the Conformational States of Thimet Oligopeptidase in Solution” (International Journal of Molecular Sciences, 2022)

Legend:
TOP^-TrpW390/L215pNF [1] = target: T1, TOP^-TrpW390/L215pNF (Rattus norvegicus, UniProt P24155, L215F/W124F/W335F/W511F/W513F/W614F); assay: Protein fluorescence (Trp-pNF FRET) assay in presence of JA-2, TOP^-TrpW390/L215pNF
T1 construct: made in house; host or cells: Escherichia coli BL21 (DE3), pET26b + pACYC184 (orthogonal tRNA/synthetase pair for pNF)
T1 sequence (P24155 whole entry W124F/L215F/W335F/W511F/W513F/W614F): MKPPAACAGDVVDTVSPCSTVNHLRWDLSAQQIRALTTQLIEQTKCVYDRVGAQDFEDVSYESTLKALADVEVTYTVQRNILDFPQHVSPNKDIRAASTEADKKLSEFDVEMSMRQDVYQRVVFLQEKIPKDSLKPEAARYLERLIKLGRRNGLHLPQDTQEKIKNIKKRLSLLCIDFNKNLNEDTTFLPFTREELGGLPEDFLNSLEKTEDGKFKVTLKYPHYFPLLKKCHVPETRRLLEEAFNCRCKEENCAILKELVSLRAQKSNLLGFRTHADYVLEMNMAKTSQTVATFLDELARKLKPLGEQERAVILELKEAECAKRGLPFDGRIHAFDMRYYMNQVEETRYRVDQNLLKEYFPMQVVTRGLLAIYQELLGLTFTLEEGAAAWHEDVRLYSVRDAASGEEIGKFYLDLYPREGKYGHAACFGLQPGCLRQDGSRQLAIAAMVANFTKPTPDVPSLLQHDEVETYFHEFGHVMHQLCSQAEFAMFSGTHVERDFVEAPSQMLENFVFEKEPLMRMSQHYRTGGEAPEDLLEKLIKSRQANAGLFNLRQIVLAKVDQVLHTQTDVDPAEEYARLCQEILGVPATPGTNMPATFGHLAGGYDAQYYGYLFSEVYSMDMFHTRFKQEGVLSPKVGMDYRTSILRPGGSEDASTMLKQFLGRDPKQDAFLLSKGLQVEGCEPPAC

TOP^-TrpW390/L182pNF [2] = target: T2, TOP^-TrpW390/L182pNF (Rattus norvegicus, UniProt P24155, L182F/W124F/W335F/W511F/W513F/W614F); assay: Protein fluorescence (Trp-pNF FRET) assay in presence of JA-2, TOP^-TrpW390/L182pNF
T2 construct: made in house; host or cells: Escherichia coli BL21 (DE3), pET26b + pACYC184 (orthogonal tRNA/synthetase pair for pNF)
T2 sequence (P24155 whole entry W124F/L182F/W335F/W511F/W513F/W614F): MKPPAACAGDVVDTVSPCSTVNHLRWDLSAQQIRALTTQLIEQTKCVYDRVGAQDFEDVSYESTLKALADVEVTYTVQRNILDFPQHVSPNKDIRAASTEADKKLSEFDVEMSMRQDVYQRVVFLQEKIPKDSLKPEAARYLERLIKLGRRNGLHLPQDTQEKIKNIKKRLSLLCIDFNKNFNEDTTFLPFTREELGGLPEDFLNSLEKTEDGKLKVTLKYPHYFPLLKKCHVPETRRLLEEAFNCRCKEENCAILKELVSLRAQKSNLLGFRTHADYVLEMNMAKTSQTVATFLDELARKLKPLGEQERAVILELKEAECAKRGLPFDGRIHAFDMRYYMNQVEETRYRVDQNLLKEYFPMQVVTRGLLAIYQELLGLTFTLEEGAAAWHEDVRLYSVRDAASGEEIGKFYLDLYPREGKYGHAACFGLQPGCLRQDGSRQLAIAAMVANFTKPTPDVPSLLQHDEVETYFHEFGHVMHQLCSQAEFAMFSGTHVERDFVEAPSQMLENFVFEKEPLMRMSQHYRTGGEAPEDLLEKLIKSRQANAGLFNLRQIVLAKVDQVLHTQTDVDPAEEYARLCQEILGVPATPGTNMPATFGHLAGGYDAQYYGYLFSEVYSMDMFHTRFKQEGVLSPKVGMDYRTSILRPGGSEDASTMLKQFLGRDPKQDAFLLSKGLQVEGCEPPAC

TOP^-TrpW390/F178pNF [3] = target: T3, TOP^-TrpW390/F178pNF (Rattus norvegicus, UniProt P24155, W124F/W335F/W511F/W513F/W614F); assay: Protein fluorescence (Trp-pNF FRET) assay in presence of JA-2, TOP^-TrpW390/F178pNF
T3 construct: made in house; host or cells: Escherichia coli BL21 (DE3), pET26b + pACYC184 (orthogonal tRNA/synthetase pair for pNF)
T3 sequence (P24155 whole entry W124F/W335F/W511F/W513F/W614F): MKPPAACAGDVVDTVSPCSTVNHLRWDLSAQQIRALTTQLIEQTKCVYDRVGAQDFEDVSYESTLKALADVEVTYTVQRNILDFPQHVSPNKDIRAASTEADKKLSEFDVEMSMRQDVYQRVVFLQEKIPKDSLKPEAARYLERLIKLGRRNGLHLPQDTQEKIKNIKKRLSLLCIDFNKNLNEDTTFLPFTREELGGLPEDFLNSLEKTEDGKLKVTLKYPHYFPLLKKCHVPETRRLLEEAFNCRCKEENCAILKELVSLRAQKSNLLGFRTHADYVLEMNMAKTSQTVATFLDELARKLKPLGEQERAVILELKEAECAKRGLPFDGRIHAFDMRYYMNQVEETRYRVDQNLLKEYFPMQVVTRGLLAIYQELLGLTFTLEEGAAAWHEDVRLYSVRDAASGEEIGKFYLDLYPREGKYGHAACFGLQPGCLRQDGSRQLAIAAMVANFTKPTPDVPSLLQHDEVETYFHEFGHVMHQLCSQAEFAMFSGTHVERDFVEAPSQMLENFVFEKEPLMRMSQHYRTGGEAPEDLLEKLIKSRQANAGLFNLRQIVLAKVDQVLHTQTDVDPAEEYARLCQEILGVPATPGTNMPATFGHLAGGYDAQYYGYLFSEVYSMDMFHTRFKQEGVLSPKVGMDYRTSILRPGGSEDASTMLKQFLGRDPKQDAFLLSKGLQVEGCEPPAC

TOP^-TrpW390 = target: T4, TOP^-TrpW390 (Rattus norvegicus, UniProt P24155, W124F/W335F/W511F/W513F/W614F); assay: Inhibition constant of JA-2, continuous assay with QFS, TOP^-TrpW390; format: biochemical; settings: substrate QFS, 37 °C, 50 mM Tris-HCl pH 7.4, 100 mM NaCl, 0.5 mM DTT
T4 construct: made in house; host or cells: Escherichia coli BL21 (DE3), pET26b
T4 sequence (P24155 whole entry W124F/W335F/W511F/W513F/W614F): as above
Procedure: (§1) WT TOP and mutant activities were monitored spectrofluorometrically in a Shimadzu RF-5301PC spectrofluorometer using the FRET peptide QFS (Mca-Pro-Leu-Gly-Pro-D-Lys (Dnp)-OH) as substrate, with excitation and emission wavelengths of 320 and 420 nm, respectively. TOP and its mutants were pre-activated by incubation with 0.5 mM DTT for 5 min at 37 °C. The concentration of the peptide solutions was determined by measuring the absorption of the 2,4-dinitrophenyl group at 365 nm (ε = 17,300 M^−1cm^−1). The kinetic parameters of peptide hydrolysis were determined at 37 °C in 50 mM Tris-HCl buffer, pH 7.4, containing 100 mM NaCl. […] The reaction was monitored continuously via the fluorescence of the released product. The rate of increase in fluorescence was converted into moles of substrate hydrolyzed per second based on the fluorescence curves of standard peptide solutions before and after total enzymatic hydrolysis. […] An empirical equation was used to correct for the inner-filter effect, and the kinetic parameters were calculated according to Wilkinson and by using Eadie–Hofstee plots. […]
(§2) Inhibition constants were determined using the TOP inhibitor JA-2 (N-[1-(R,S)-carboxy-3-phenylpropyl]Ala-Aib-Tyr-p-aminobenzoate). The constants were determined in a continuous assay using the FRET peptide QFS as substrate. […]

WT TOP = target: T5, WT TOP (Rattus norvegicus, UniProt P24155); assay: Inhibition constant of JA-2, continuous assay with QFS, WT TOP; format: biochemical; settings: substrate QFS, 37 °C, 50 mM Tris-HCl pH 7.4, 100 mM NaCl, 0.5 mM DTT
T5 construct: made in house; host or cells: Escherichia coli BL21 (DE3), pET26b
T5 sequence (P24155 whole entry): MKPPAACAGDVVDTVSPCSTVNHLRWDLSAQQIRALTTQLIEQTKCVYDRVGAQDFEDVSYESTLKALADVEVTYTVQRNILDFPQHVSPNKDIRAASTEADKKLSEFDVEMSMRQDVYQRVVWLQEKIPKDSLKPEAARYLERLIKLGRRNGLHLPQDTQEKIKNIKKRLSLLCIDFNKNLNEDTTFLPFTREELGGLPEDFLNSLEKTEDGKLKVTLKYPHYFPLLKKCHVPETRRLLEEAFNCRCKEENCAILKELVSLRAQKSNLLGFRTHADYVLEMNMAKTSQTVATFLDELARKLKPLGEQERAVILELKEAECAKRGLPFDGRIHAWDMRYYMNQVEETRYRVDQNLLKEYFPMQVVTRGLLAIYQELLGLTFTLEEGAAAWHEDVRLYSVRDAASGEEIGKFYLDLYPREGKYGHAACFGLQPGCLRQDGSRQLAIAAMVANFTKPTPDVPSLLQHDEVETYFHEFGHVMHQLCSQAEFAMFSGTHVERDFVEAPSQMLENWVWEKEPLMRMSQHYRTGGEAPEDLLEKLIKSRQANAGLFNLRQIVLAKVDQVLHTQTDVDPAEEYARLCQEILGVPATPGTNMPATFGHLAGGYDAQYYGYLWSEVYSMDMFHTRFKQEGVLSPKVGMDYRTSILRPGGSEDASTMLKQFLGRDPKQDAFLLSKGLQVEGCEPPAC
Procedure: as §1, §2

TOP^-TrpW390/Y224pNF [4] = target: T6, TOP^-TrpW390/Y224pNF (Rattus norvegicus, UniProt P24155, W124F/W335F/W511F/W513F/W614F/Y224F); assay: Inhibition constant of JA-2, continuous assay with QFS, TOP^-TrpW390/Y224pNF; format: biochemical; settings: substrate QFS, 37 °C, 50 mM Tris-HCl pH 7.4, 100 mM NaCl, 0.5 mM DTT
T6 construct: made in house; host or cells: Escherichia coli BL21 (DE3), pET26b + pACYC184 (orthogonal tRNA/synthetase pair for pNF)
T6 sequence (P24155 whole entry W124F/Y224F/W335F/W511F/W513F/W614F): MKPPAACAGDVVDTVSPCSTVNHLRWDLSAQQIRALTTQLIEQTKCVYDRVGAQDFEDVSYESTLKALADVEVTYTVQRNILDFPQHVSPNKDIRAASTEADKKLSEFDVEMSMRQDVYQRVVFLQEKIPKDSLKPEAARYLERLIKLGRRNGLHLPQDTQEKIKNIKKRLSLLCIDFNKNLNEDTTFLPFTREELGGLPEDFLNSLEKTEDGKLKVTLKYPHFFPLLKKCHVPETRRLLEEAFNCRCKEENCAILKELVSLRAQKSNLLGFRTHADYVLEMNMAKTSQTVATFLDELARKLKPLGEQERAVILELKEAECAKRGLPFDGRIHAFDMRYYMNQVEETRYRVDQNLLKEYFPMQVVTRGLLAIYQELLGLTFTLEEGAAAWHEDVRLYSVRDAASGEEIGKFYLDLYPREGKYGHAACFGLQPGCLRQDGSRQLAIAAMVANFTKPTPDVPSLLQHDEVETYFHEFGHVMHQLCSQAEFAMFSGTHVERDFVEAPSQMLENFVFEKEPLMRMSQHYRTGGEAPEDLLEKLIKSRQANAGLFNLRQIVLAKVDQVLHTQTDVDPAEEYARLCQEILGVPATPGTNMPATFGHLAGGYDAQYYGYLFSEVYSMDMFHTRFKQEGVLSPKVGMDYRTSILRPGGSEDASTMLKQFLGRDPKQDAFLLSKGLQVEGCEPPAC
Procedure: as §1, §2

TOP^-TrpW390/Y224pNF [5] = target: T6, TOP^-TrpW390/Y224pNF; assay: Protein fluorescence (Trp-pNF FRET) assay in presence of JA-2, TOP^-TrpW390/Y224pNF
TOP^-TrpW390/L182pNF [6] = target: T2, TOP^-TrpW390/L182pNF; assay: Inhibition constant of JA-2, continuous assay with QFS, TOP^-TrpW390/L182pNF; format: biochemical; settings: substrate QFS, 37 °C, 50 mM Tris-HCl pH 7.4, 100 mM NaCl, 0.5 mM DTT
Procedure: as §1, §2

TOP^-TrpW390/L215pNF [7] = target: T1, TOP^-TrpW390/L215pNF; assay: Inhibition constant of JA-2, continuous assay with QFS, TOP^-TrpW390/L215pNF; format: biochemical; settings: substrate QFS, 37 °C, 50 mM Tris-HCl pH 7.4, 100 mM NaCl, 0.5 mM DTT
Procedure: as §1, §2

TOP^-TrpW390/F178pNF [8] = target: T3, TOP^-TrpW390/F178pNF; assay: Inhibition constant of JA-2, continuous assay with QFS, TOP^-TrpW390/F178pNF; format: biochemical; settings: substrate QFS, 37 °C, 50 mM Tris-HCl pH 7.4, 100 mM NaCl, 0.5 mM DTT
Procedure: as §1, §2

[9] = 13.4 µM JA-2, 0.5 µM TOP protein, 37 °C, 50 mM Tris-HCl pH 7.4, 100 mM NaCl, 0.5 mM DTT
[10] = 13.4 µM JA-2, calculated using Equation (1), R0 = 15.8 Å

## C[C@H](NC(CCc1ccccc1)C(=O)O)C(=O)NC(C)(C)C(=O)N[C@@H](Cc1ccc(O)cc1)C(=O)Nc1ccc(C(=O)O)cc1 (stereo partly drawn) [JA-2, N-[1-(R,S)-carboxy-3-phenylpropyl]Ala-Aib-Tyr-p-aminobenzoate]
TOP^-TrpW390/L215pNF [1]; [9]
  FRET Efficiency, +JA-2: 0.10 ± 0.005
TOP^-TrpW390/L215pNF [1]; [10]
  D-A Distance, +JA-2: 23 Å
TOP^-TrpW390/L182pNF [2]; [9]
  FRET Efficiency, +JA-2: 0.24 ± 0.02
TOP^-TrpW390/L182pNF [2]; [10]
  D-A Distance, +JA-2: 19 Å
TOP^-TrpW390/F178pNF [3]; [9]
  FRET Efficiency, +JA-2: 0.150 ± 0.009
TOP^-TrpW390/F178pNF [3]; [10]
  D-A Distance, +JA-2: 21 Å
TOP^-TrpW390
  Ki: 750 ± 40 nM
WT TOP
  Ki: 32 ± 1 nM
TOP^-TrpW390/Y224pNF [4]
  Ki: 1160 ± 60 nM
TOP^-TrpW390/Y224pNF [5]; [9]
  FRET Efficiency, +JA-2: 0.30 ± 0.02
TOP^-TrpW390/Y224pNF [5]; [10]
  D-A Distance, +JA-2: 18 Å
TOP^-TrpW390/L182pNF [6]
  Ki: 740 ± 60 nM
TOP^-TrpW390/L215pNF [7]
  Ki: 870 ± 50 nM
TOP^-TrpW390/F178pNF [8]
  Ki: 1230 ± 80 nM
